Each compound was assayed against T1, human TLR9 (Homo sapiens, UniProt Q9NR96) (assay: HEK293-Blue-hTLR-9 cells assay (SEAP reporter, ODN2006 stimulation)). Details: HEK293-Blue-hTLR9 cells, ODN2006 ligand, 20 hrs incubation.
T1 sequence (Q9NR96 26-1032): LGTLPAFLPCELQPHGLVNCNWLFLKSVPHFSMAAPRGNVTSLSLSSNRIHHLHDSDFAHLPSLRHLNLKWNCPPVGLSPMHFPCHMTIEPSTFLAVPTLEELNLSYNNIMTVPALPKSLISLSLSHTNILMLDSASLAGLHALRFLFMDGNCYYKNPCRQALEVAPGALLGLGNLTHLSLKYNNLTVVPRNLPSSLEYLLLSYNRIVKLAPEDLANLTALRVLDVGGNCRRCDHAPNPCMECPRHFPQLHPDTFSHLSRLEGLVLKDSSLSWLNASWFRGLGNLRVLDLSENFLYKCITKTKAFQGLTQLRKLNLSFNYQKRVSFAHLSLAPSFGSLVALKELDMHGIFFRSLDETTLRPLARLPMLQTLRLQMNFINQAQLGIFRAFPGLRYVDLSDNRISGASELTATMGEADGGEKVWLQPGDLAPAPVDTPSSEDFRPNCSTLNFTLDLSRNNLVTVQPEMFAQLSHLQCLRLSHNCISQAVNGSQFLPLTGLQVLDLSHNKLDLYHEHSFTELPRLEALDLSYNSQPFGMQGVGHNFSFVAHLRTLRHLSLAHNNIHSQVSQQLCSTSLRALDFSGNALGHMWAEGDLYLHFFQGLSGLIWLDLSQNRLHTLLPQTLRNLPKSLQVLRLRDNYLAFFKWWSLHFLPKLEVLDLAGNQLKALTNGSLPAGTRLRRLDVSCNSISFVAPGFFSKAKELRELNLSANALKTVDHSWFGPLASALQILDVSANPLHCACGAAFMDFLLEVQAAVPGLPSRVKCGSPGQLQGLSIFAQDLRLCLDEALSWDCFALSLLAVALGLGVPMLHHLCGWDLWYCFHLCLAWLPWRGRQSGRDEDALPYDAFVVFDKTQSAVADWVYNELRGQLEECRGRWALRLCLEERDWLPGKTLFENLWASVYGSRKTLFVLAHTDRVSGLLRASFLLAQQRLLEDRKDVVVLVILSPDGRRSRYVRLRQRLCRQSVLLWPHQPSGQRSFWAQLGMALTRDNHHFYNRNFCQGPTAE
Format: cell-based
From the text: A stable HEK293-Blue-hTLR-9 cell line was purchased from InvivoGen (Cat. #: hkb-htlr9, San Diego, Calif., USA). These cells were originally designed for studying the stimulation of human TLR9 by monitoring the activation of NF-κB. A SEAP (secreted embryonic alkaline phosphatase) reporter gene was placed under the control of the IFN-β minimal promoter fused to five NF-κB and AP-1-binding sites. The SEAP was induced by activating NF-κB and AP-1 via stimulating HEK-Blue hTLR9 cells with TLR9 ligands. Therefore the reporter expression was declined by TLR9 antagonist under the stimulation of a ligand, such as ODN2006 (Cat. #: tlr1-2006-1, Invivogen, San Diego, Calif., USA), for incubation of 20 hrs. The cell culture supernatant SEAP reporter activity was determined using QUANTI-Blue™ kit (Cat. #: rep-qb1, Invivogen, San Diego, Calif., USA) at a wavelength of 640 nm, a detection medium that turns purple or blue in the presence of alkaline phosphatase.
HEK293-Blue-hTLR9 cells were incubated at a density of 250,000˜450,000 cells/mL in a volume of 170 μL in a 96-well plate in Dulbecco's Modified Eagle's medium (DMEM) containing 4.5 g/L glucose, 50 U/mL penicillin, […], […], 2 mM L-glutamine, 10% (v/v) heat-inactivated fetal bovine serum with addition of 20 μL test compound in a serial dilution in the presence of final DMSO at 1% and 10 μL of 20 uM ODN2006 in above DMEM, perform incubation under 37° C. in a CO2 incubator for 20 hrs. Then 20 μL of the supernatant from each well was incubated with 180 μL Quanti-blue substrate solution at 37° C. for 2 hrs and the absorbance was read at 620-655 nm using a spectrophotorneter. The signalling pathway that TLR9 activation leads to downstream NF-κB activation has been widely accepted, and therefore similar reporter assay was modified for evaluating TLR9 antagonist.

With C[C@@H]1CN(c2ccc(C#N)n3nccc23)C[C@H](CN2C[C@H]3CC[C@@H](N(C)C)[C@H]3C2)O1 (racemic) [Example 75, 4-[(2S,6R)-2-[[4-(dimethylamino)-3,3a,4,5,6,6a-hexahydro-1H-cyclopenta[c]pyrrol-2-yl]methyl]-6-methyl-morpholin-4-yl]pyrazolo[1,5-a]pyridine-7-carbonitrile] as the compound, how does the IC50 read?
Its IC50 is 290 nM.

CC1CNCCN1C[C@H]1CN(c2ccc(C#N)n3nccc23)C[C@@H](C)O1 (single isomer, unassigned) [Example 50A] was tested. Which IC50 did it give?
The IC50 was 16000 nM.

CC1CNCCN1C[C@H]1CN(c2ccc(C#N)n3nccc23)C[C@@H](C)O1 (single isomer, unassigned) [Example 50B] was tested. Which IC50 did it give?
The IC50 was 24000 nM.

For C[C@@H]1CN(c2ccc(C#N)n3nccc23)C[C@H](CN2CCC(N3CCN(C)CC3)CC2)O1 [Example 1, 4-[(2R,6S)-2-methyl-6-[[4-(4-methylpiperazin-1-yl)-1-piperidyl]methyl]morpholin-4-yl]pyrazolo[1,5-a]pyridine-7-carbonitrile], which IC50 is on record?
The IC50 was 130 nM.

For C[C@@H]1CN(c2ccc(C#N)n3nccc23)C[C@H](CN2CCC3(CCNCC3)CC2)O1 [Example 3, 4-[(2S,6R)-2-(3,9-diazaspiro[5.5]undecan-3-ylmethyl)-6-methyl-morpholin-4-yl]pyrazolo[1,5-a]pyridine-7-carbonitrile], which IC50 is on record?
The IC50 was 90 nM.

How did the IC50 turn out when C[C@@H]1CN(c2ccc(C#N)n3nccc23)C[C@H](CN2CCC(N3CCCCCC3)CC2)O1 [Example 4, 4-[(2S,6R)-2-[[4-(azepan-1-yl)-1-piperidyl]methyl]-6-methyl-morpholin-4-yl]pyrazolo[1,5-a]pyridine-7-carbonitrile] was run?
The IC50 was 280 nM.

C[C@@H]1CN(c2ccc(C#N)n3nccc23)C[C@H](CN2CCNCC2)O1 [Example 5, 4-[(2R,6S)-2-methyl-6-(piperazin-1-ylmethyl)morpholin-4-yl]pyrazolo[1,5-a]pyridine-7-carbonitrile] was tested. Which IC50 did it give?
Its IC50 is 890 nM.

C[C@@H]1CN(c2ccc(C#N)n3nccc23)C[C@H](CN2CCC3(CCNC3)C2)O1 (stereo partly drawn) [Example 6, 4-[(2S,6R)-2-(2,7-diazaspiro[4.4]nonan-2-ylmethyl)-6-methyl-morpholin-4-yl]pyrazolo[1,5-a]pyridine-7-carbonitrile] was tested. Which IC50 did it give?
The IC50 was 31 nM.

With C[C@@H]1CN(c2ccc(C#N)n3nccc23)C[C@H](CNC2CCN(C)CC2)O1 [Example 7, 4-[(2R,6S)-2-methyl-6-[[(1-methyl-4-piperidyl)amino]methyl]morpholin-4-yl]pyrazolo[1,5-a]pyridine-7-carbonitrile] as the compound, how does the IC50 read?
Its IC50 is 320 nM.

C[C@@H]1CN(c2ccc(C#N)n3nccc23)C[C@H](CN2CC3(CCCNC3)C2)O1 [Example 10, 4-[(2S,6R)-2-(2,8-diazaspiro[3.5]nonan-2-ylmethyl)-6-methyl-morpholin-4-yl]pyrazolo[1,5-a]pyridine-7-carbonitrile] was tested. Which IC50 did it give?
The IC50 was 80 nM.

How did the IC50 turn out when C[C@@H]1CN(c2ccc(C#N)n3nccc23)C[C@H](CN2CC3(CC(N)C3)C2)O1 [Example 11, 4-[(2S,6R)-2-[(6-amino-2-azaspiro[3.3]heptan-2-yl)methyl]-6-methyl-morpholin-4-yl]pyrazolo[1,5-a]pyridine-7-carbonitrile] was run?
Its IC50 is 97 nM.

With C[C@@H]1CN(c2ccc(C#N)n3nccc23)C[C@H](CN2CCC(CN)CC2)O1 [Example 12, 4-[(2S,6R)-2-[[4-(aminomethyl)-1-piperidyl]methyl]-6-methyl-morpholin-4-yl]pyrazolo[1,5-a]pyridine-7-carbonitrile] as the compound, how does the IC50 read?
Its IC50 is 200 nM.

Which IC50 does the source give for C[C@@H]1CN(c2ccc(C#N)n3nccc23)C[C@H](CN2CCC(CCN)CC2)O1 [Example 13, 4-[(2S,6R)-2-[[4-(2-aminoethyl)-1-piperidyl]methyl]-6-methyl-morpholin-4-yl]pyrazolo[1,5-a]pyridine-7-carbonitrile] here?
Its IC50 is 270 nM.

C[C@@H]1CN(c2ccc(C#N)n3nccc23)C[C@H](CN2CCN(C(=O)CN)CC2)O1 [Example 14, 4-[(2S,6R)-2-[[4-(2-aminoacetyl)piperazin-1-yl]methyl]-6-methyl-morpholin-4-yl]pyrazolo[1,5-a]pyridine-7-carbonitrile] was tested. Which IC50 did it give?
Its IC50 is 3000 nM.

C[C@@H]1CN(c2ccc(C#N)n3nccc23)C[C@H](CN2CCN(C)CC2)O1 [Example 15, 4-[(2R,6S)-2-methyl-6-[(4-methylpiperazin-1-yl)methyl]morpholin-4-yl]pyrazolo[1,5-a]pyridine-7-carbonitrile] was tested. Which IC50 did it give?
Its IC50 is 23000 nM.

Which IC50 does the source give for C[C@@H]1CN(c2ccc(C#N)n3nccc23)C[C@H](CN2CCC(N3CCCCC3)CC2)O1 [Example 16, 4-[(2R,6S)-2-methyl-6-[[4-(1-piperidyl)-1-piperidyl]methyl]morpholin-4-yl]pyrazolo[1,5-a]pyridine-7-carbonitrile] here?
Its IC50 is 520 nM.

C[C@@H]1CN(c2ccc(C#N)n3nccc23)C[C@H](CN2CCC(N)CC2)O1 [Example 17, 4-[(2S,6R)-2-[(4-amino-1-piperidyl)methyl]-6-methyl-morpholin-4-yl]pyrazolo[1,5-a]pyridine-7-carbonitrile] was tested. Which IC50 did it give?
The IC50 was 180 nM.

With C[C@@H]1CN(c2ccc(C#N)n3nccc23)C[C@H](CN2CCC3(CCNCC3)C2)O1 [Example 18, 4-[(2S,6R)-2-(2,8-diazaspiro[4.5]decan-2-ylmethyl)-6-methyl-morpholin-4-yl]pyrazolo[1,5-a]pyridine-7-carbonitrile] as the compound, how does the IC50 read?
The IC50 was 89 nM.

Which IC50 does the source give for C[C@@H]1CN(c2ccc(C#N)n3nccc23)C[C@H](CN2CCC3(CCNC3)CC2)O1 [Example 19, 4-[(2S,6R)-2-(2,8-diazaspiro[4.5]decan-8-ylmethyl)-6-methyl-morpholin-4-yl]pyrazolo[1,5-a]pyridine-7-carbonitrile] here?
Its IC50 is 92 nM.

C[C@@H]1CN(c2ccc(C#N)n3nccc23)C[C@H](CN2CC3(CCNC3)CC2=O)O1 (stereo partly drawn) [Example 20, 4-[(2R,6R)-2-methyl-6-[(3-oxo-2,7-diazaspiro[4.4]nonan-2-yl)methyl]morpholin-4-yl]pyrazolo[1,5-a]pyridine-7-carbonitrile] was tested. Which IC50 did it give?
Its IC50 is 12000 nM.

With C[C@@H]1CN(c2ccc(C#N)n3nccc23)C[C@H](CN2CCC3(CCNC3)C2=O)O1 (stereo partly drawn) [Example 21, 4-[(2R,6R)-2-methyl-6-[(1-oxo-2,7-diazaspiro[4.4]nonan-2-yl)methyl]morpholin-4-yl]pyrazolo[1,5-a]pyridine-7-carbonitrile] as the compound, how does the IC50 read?
Its IC50 is 16000 nM.

Which IC50 does the source give for C[C@@H]1CN(c2ccc(C#N)n3nccc23)C[C@H](CN2CC3CNCC3C2)O1 (stereo partly drawn) [Example 22, 4-[(2S,6R)-2-(2,3,3a,4,6,6a-hexahydro-1H-pyrrolo[3,4-c]pyrrol-5-ylmethyl)-6-methyl-morpholin-4-yl]pyrazolo[1,5-a]pyridine-7-carbonitrile] here?
Its IC50 is 180 nM.

Which IC50 does the source give for C[C@@H]1CN(c2ccc(C#N)n3nccc23)C[C@H](CN2CCCC3(CCCNC3)C2)O1 (stereo partly drawn) [Example 23, 4-[(2S,6R)-2-(2,8-diazaspiro[5.5]undecan-2-ylmethyl)-6-methyl-morpholin-4-yl]pyrazolo[1,5-a]pyridine-7-carbonitrile] here?
The IC50 was 250 nM.

With C[C@@H]1CN(c2ccc(C#N)n3nccc23)C[C@H](CN2CC3(CCNCC3)C2)O1 [Example 24, 4-[(2S,6R)-2-(2,7-diazaspiro[3.5]nonan-2-ylmethyl)-6-methyl-morpholin-4-yl]pyrazolo[1,5-a]pyridine-7-carbonitrile] as the compound, how does the IC50 read?
Its IC50 is 100 nM.
